According to publication PMC6934184, “Selective DNA-PKcs inhibition extends the therapeutic index of localized radiotherapy and chemotherapy” (The Journal of Clinical Investigation, 2019):

Experiments:
[1] = test system: Huh7 subcutaneous xenografts; assay: subcutaneous Huh7 xenograft with intratumoral doxorubicin-eluting beads; format: in vivo, CD-1 nude mice
Description: DC M1 beads were loaded with doxorubicin at 25 mg/mL as described in Supplemental Methods. Huh7 cells (5 × 10^6 cells per mouse in 50 μL, 50% vol/vol Matrigel) were implanted s.c. into the right flank of female CD-1 nude mice to generate subcutaneous Huh7 xenografts (180–220 mm^3). Mice were then treated with 5 μL doxorubicin-loaded or unloaded beads suspended in 30 μL saline administered via an intratumoral injection along the length of each tumor using a 29G needle. One hour after bead implantation, twice-daily dosing with 30 mg/kg NU5455 or vehicle control (1% vol/vol acetic acid in water) was commenced via oral gavage (9-hour dosing interval) and continued for up to 20 days. Tumor volumes were calculated daily using bilateral caliper measurements as described in Supplemental Methods, and body weight measurements taken daily throughout treatment. […]
γH2AX immunohistochemistry in HCC tumor xenografts
FFPE tumor sections (4 µm) were dewaxed in xylene and hydrated in descending concentrations of ethanol. Endogenous tissue peroxidase activity was quenched using 3% v/v hydrogen peroxide. Antigen retrieval was performed using 1 mM EDTA, pH 8.0 in a microwave (Kenwood). Tissue sections were blocked for avidin and biotin using the […]
Avidin/Biotin Blocking Kit (Vector Laboratories), and washed in TBST be tween all subsequent steps. Slides were blocked in 20% v/v pig serum in DI water, and sections incubated with an antibody against γH2AX ( 20E3, Cell Signaling Technology #9718, 1 in 200 in TBST) in a humidified container at 4°C overnight.
Sections were th en incubated with polyclonal swine anti -rabbit IgG, biotinylated (Dako #E0353, 1 in 200 in TBST), followed by VectaStain RTU Elite ABC reagent (Vector Laboratories). Slides were stained using DAB Peroxidase Substrate Kit (Vector Laboratories) prepared according to the manufacturer’s instructions. Slides were washed in DI water, then counterstained in filtered haematoxylin s olution. Background staining was minimized by exposure to acid alcohol solution (1% v/v hydrochloric acid in 70% v/v ethanol, Fisher), and staining blued by incubation in Scott’s tap water. Stained slides were then dehydrated in ascending concentrations of ethanol, followed by clearing in xylene. Glass coverslips (Dako) were mounted onto slides using DPX mounting medium. pDNA-PKcs Ser2056 immunohistochemistry in HCC tumor xenografts
Tumor sections were dewaxed in xylene, hydrated, and endogenous peroxidase activity quenched as detailed above. Antigen retrieval was performed in 1X citrate buffer (10 mM citric acid (Acros), pH 6.0 + 0.5% v/v Tween 20), using a decloaker (A. Menarini Diagnostics).
Tissue sections were blocked in 1% w/v BSA and 1% v/v normal go at serum in PBS (1 hour, RT). Sections were then incubated at 4°C overnight in a humidified container with an antibody against pDNA -PKcs Ser2056 (Abcam #18192, 1:1000 in 1% w/v BSA and 1% v/v […]
Sections were washed with TBST before incuba tion with EnVision+ anti -rabbit Polymer-HRP solution (Dako #K4002). Slides were washed in TBST , and antibody conjugates visualized by incubation with ImmPACT DAB peroxidase substrate working solution. […]
IHC slides were digitized via conversion using the Aperio ScanScope CS Brightfield scanner (Leica Biosystems) at x20 zoom. Percentage hepatocyte nuclear positivity for pDNA -PKcs Ser2056 and γH2AX was determined using a nuclear algorithm generated with the Aperio ImageScope software v11.2.0.780 (Leica Biosystems). […]

[2] = test system: A549 subcutaneous xenografts; assay: subcutaneous A549 xenograft with localized radiation; format: in vivo, mouse; details: NU5455 30 mg/kg oral 30 min before 10 Gy
Description: Subcutaneous non–small cell lung cancer xenografts were generated in CD-1 nude or BALB/c nude mice using A549 and Calu-6 cells, respectively, as previously described ([53]). When tumors reached 100 mm^3, mice were randomized into 4 groups (n = 7–9 per group) to receive (a) vehicle (orally) 30 minutes before mock radiation, (b) NU5455 (30 mg/kg orally) 30 minutes before mock radiation, (c) targeted tumor radiation at a single dose of 3.3 or 10 Gy, or (d) NU5455 (30 mg/kg orally) 30 minutes before 3.3 Gy or 10 Gy targeted tumor radiation. For targeted irradiation of subcutaneous tumors, anesthetized mice were restrained in a lead-shielded container with only the tumor exposed, and x-ray radiation applied using an RS320 irradiation system (Gulmay Medical) at a dose rate of 1.82 Gy/min. […]
NSCLC subcutaneous xenografts were generated as previously described ( 53). […] Mouse weights and tumor volumes (1/2 x length x width x depth) were measured three times a week.
Targeted radiotherapy in subcutaneous and orthotopic NSCLC xenograft models When subcutaneous xenografts reached 100 mm3, mice were randomized into four groups (n = 7 - 11/group): (i) N-Methyl-2-pyrrolidone (NMP): 30% Encapsin : PEG400 (1:6:3 v/v/v) vehicle p.o. 30 minutes prior to mock radiation. […] The remaining mice were monitored for tumor growth until the sizes of tumo rs reached 400 mm 3 or up to 38 days after initiation of […]

CN(C(=O)CN1CCOCC1)c1ccc2sc3c(-c4cccc5c(=O)cc(N6CC7CCC(C6)O7)oc45)cccc3c2c1 [NU5455]
DNA-PKcs phosphorylation (Ser2056) in tumors ([1]; 72 hours of treatment, doxorubicin-loaded beads, immunohistochemistry): reduced by NU5455 treatment
DNA damage (γH2AX) in area surrounding doxorubicin-eluting beads ([1]; 72 hours, immunohistochemistry): significantly augmented
mean RTV4 value, monotherapy ([1]; NU5455 30 mg/kg b.i.d. with unloaded beads, or doxorubicin beads with vehicle): 10.6 days
body weight or clinical condition versus vehicle alone ([1]; NU5455 30 mg/kg oral b.i.d. + doxorubicin-eluting beads): no additional impact
mean RTV4 value, combination ([1]; NU5455 30 mg/kg oral b.i.d. + intratumoral doxorubicin-eluting beads): 17.8 days
antitumor activity with radiation [2]: enhanced the antitumor activity
